Like-named read-outs stand apart in the source and are kept apart here.
Legend:
[1] = test system: lung cancer (A549) cell line; experiment: MTT cytotoxicity assay, A549; conditions: for Cell viability percentage, A549: Table S3
Method: (§1) Cells were cultured in sterile Dulbecco’s Minimal Essential Medium (DMEM, Gibco) supplemented with 10% fetal bovine serum (FBS) and 1% penicillin-streptomycin solution. […] Cell counting was carried out using a handheld automated cell counter (Scapter 3.0™, Merck, Burlington, MA, USA) and seeded (1 × 10^4 cells/well) into a 96-well plate. After 24 h, the cells were treated with different concentrations (1, 5, 10, 25 and 50 µM) of the test compounds and reference standards prepared in DMEM. The MTT solution (20 μL) prepared in PBS (5 mg/mL) was added to all the wells, and the plates were incubated for 4 h, followed by 1 h incubation with 100 µL of dimethyl sulfoxide (DMSO) to dissolve the formazan crystals. Untreated cells and 5% DMSO were included in the experiment as negative controls. All experiments were performed in triplicate. The plates were read at 570 nm at a reference wavelength of 630 nm using an ELISA plate reader (Varioskan Flash, ThermoFisher Scientific, Vantaa, Finland). The percentage of cell viability was calculated using the following formula, Cell viability %=At/Ab×100 where At represents the absorbance value of test compound and Ab the absorbance value of the blank. […] The data were expressed as means ± SD.

[2] = MTT cytotoxicity assay, HEK293-T; conditions: human, HEK293-T cells
Method: as §1

[3] = test system: human embryonic kidney (HEK293-T) cell line; experiment: MTT cytotoxicity assay, HEK293-T; conditions: for IC50: read-out: IC50 Hek293-T; for Cell viability percentage, HEK293-T: Table S4
Method: as §1

[4] = biological target: T1, human α-amylase (Homo sapiens, UniProt P04746); experiment: α-amylase inhibitor screening kit assay; type: biochemical; conditions: mean ± SD, triplicate; tested at 1, 5, 10, 25, 50 µM
T1 construct: purchased Abcam ab283391
T1 sequence (P04746 16-511): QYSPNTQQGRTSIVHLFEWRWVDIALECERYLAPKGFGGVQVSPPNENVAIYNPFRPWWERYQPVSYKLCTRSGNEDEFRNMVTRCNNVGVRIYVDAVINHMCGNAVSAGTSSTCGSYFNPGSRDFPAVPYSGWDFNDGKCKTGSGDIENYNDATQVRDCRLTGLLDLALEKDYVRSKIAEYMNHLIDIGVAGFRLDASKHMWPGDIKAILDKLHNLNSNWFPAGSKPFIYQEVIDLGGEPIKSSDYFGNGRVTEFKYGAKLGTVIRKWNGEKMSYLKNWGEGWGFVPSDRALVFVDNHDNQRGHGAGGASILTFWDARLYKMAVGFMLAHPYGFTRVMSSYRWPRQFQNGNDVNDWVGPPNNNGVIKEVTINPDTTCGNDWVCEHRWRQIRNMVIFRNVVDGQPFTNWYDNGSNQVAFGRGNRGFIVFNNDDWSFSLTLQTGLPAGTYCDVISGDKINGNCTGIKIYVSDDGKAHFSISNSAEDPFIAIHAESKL
Method: The α-amylase assay was performed in triplicate, using a 96-well plate following the procedure recommended by the manufacturer as outlined in the α-amylase inhibitor Screening Kit (Catalogue No. ab283391; Abcam). […] The average values obtained from the absorbance readings were used to determine the IC50 and standard deviation values in GraphPad prism from nonlinear regression dose–response curves.

[5] = DPPH radical scavenging assay; conditions: mean ± SD; 45 min in the dark; 512 nm
Method: The DPPH radical scavenging assay was conducted following the procedure described in our previous study. The test compounds and ascorbic acid at various concentrations (ranging from 0 µM to 50 µM) in DMSO were mixed with a solution of DPPH (0.20 mM) in methanol and incubated in the dark for 45 min. Five absorbance readings were recorded at 512 nm using an Elisa plate reader (Varioskan Flash, ThermoFisher Scientific, Vantaa, Finland). The experiment was carried out in triplicate, and averaged values from the absorbance readings were used to determine the IC50 and standard deviation values in GraphPad prism from nonlinear regression dose–response curves.

[6] = biological target: T2, α-Glucosidase type 1 from baker's yeast (Saccharomyces cerevisiae, UniProt P53341); experiment: biochemical; conditions: mean ± SD, triplicate, tested at 1, 5, 10, 25, 50 µM
T2 construct: purchased Sigma Aldrich (Pty) Ltd. G5003
T2 sequence (P53341 whole entry): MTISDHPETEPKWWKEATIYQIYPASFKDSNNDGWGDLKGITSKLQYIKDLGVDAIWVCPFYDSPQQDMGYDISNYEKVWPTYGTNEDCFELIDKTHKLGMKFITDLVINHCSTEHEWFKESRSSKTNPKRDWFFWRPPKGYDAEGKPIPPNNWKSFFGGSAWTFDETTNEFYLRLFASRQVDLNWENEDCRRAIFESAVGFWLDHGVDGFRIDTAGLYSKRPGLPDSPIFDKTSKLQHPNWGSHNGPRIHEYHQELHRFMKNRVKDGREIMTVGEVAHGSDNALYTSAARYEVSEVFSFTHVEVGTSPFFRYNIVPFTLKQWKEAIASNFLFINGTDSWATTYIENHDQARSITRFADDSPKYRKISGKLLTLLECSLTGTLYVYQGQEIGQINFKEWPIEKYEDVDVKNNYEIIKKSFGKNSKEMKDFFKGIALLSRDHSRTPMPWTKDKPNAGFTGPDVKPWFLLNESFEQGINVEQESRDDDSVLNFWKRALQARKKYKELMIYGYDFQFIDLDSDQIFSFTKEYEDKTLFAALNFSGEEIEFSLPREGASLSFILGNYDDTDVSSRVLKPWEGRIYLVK
Method: The assay was conducted in triplicate following a method described in our previous study. […] After pre-incubation, 17 µL of 2 mM PNP-G was added. The absorbances were recorded in a 96-well microplate at 400 nm using an Elisa plate reader (Varioskan Flash, ThermoFischer Scientific, Vantaa, Finland). The average values obtained from the readings were used to determine the IC50 and standard deviation values using a GraphPad Prism software (Version 8, GraphPad Software Inc., San Diego, CA, USA). The average values obtained from the absorbance readings were used to determine the IC50 and standard deviation values in GraphPad prism from nonlinear regression dose–response curves.

[7] = test system: breast cancer (MCF-7) cell line; experiment: MTT cytotoxicity assay, MCF-7; conditions: for Cell viability percentage, MCF-7: Table S2
Method: as §1

[8] = NO free radical scavenging assay (sodium nitroprusside/Griess); conditions: mean ± SD; sodium nitroprusside, Griess reagent, 550 nm
Method: The assay was conducted following the method described in our previous study. A mixture of 10 mM sodium nitroprusside (20 µL), phosphate buffer (5 µL) and the test compound (5 µL) were incubated at 25 °C in a 96-well plate for 2.5 h. After incubation, 20 µL of Griess reagent (1.00 g of sulfanilic acid + 0.10 g naphthylethylene diamine dihydrochloride) was added to the previous mixture and allowed to stand for 30 min. […] Each experiment was performed in triplicate, and the average was taken. The average obtained from the absorbance readings was used to calculate the IC50 values in GraphPad prism from nonlinear regression dose–response curves.

[9] = Homo sapiens, A549, read-out: IC50 A549
[10] = Homo sapiens, MCF7, read-out: IC50 MCF-7

| SMILES | Cell viability percentage, A549 ([1]; Conc. 1 (µM per method)) | Cell viability percentage, A549 ([1]; Conc. 5 (µM per method)) | Cell viability percentage, A549 ([1]; Conc. 10 (µM per method)) | Cell viability percentage, A549 ([1]; Conc. 25 (µM per method)) | Cell viability percentage, A549 ([1]; Conc. 50 (µM per method)) | IC50 [1, 9] [µM] | viability at 1 µM [2] [%] | viability at 5 µM [2] [%] | viability at 10 µM [2] [%] | viability at 25 µM [2] [%] | IC50 ([3]; Homo sapiens, HEK-293T) [µM] | IC50 [4] [µM] | IC50 [5] [µM] | Cell viability percentage, MCF-7 ([7]; Conc. 1 (µM per method)) | Cell viability percentage, MCF-7 ([7]; Conc. 5 (µM per method)) | Cell viability percentage, MCF-7 ([7]; Conc. 10 (µM per method)) | Cell viability percentage, MCF-7 ([7]; Conc. 25 (µM per method)) | Cell viability percentage, MCF-7 ([7]; Conc. 50 (µM per method)) | IC50 [7, 10] [µM] | IC50 [8] [µM] | other results |
| --- | --- | --- | --- | --- | --- | --- | --- | --- | --- | --- | --- | --- | --- | --- | --- | --- | --- | --- | --- | --- | --- |
| CC1=[N+]([O-])C(c2ccccc2)Nc2ccc(I)cc21 (stereo not shown) [Compound 3e] | 74,9578% | 64,338% | 52,0419% | 40,2408% | 30,3184% | 11.4 ± 0.12 | 69.7 | 60 | 40 | 31.9 | 20.12 ± 0.06 | 49.5 ± 0.06 | 1.1 ± 0.031 | 27,8443% | 22,0559% | 23,6194% | 19,7272% | 17,2488% | 15.83 ± 0.14 | 52.38 ± 0.003 | viability at 50 µM [2]: 20%; melting point: 184 to 186 °C; IC50 ([6]; IC50 α-Glucosidase): 6.04 ± 0.01 µM |
| CC1=[N+]([O-])C(c2ccc(Cl)cc2)Nc2c(I)cc(Br)cc21 (stereo not shown) [Compound 3k] | 78,5578% | 73,6416% | 60,0068% | 42,682% | 32,6808% | 15.37 ± 0.13 | 61.3 | 55.4 | 42.5 | 31.6 | 21.04 ± 0.05 | 4.46 ± 0.02 | 4.08 ± 0.038 | 42,1823% | 41,6001% | 39,6041% | 38,7891% | 38,1737% | 16.65 ± 0.05 | 15 ± 0.005 | viability at 50 µM [2]: 24%; IC50 ([6]; read-out: IC50 α-Glucosidase): 13.47 ± 0.04 µM |
| COc1ccc(C2Nc3ccc(Br)cc3C(C)=[N+]2[O-])cc1 (stereo not shown) [Compound 3d] | – | – | – | – | – | 13.45 ± 0.03 | 75.1 | 60.1 | 54.1 | 30.6 | 37.53 ± 0.18 | 54.08 ± 0.03 | 9.55 ± 0.006 | 47,0559% | 46,8729% | 44,0286% | 43,2136% | 38,6394% | 13.68 ± 0.09 | 24.42 ± 0.004 | viability at 50 µM [2]: 17.6%; melting point: 194 to 196 °C; IC50 ([6]; IC50 α-Glucosidase): 68.2 ± 0.01 µM |
| COc1cccc2c1C(=O)c1c(O)c3c(c(O)c1C2=O)C[C@@](O)(C(=O)CO)C[C@@H]3O[C@H]1C[C@H](N)[C@H](O)[C@H](C)O1 [Doxorubicin, doxorubicin, reference compound] | – | – | – | – | – | 0.36 ± 0.07 | – | – | – | – | 0.87 ± 0.04 | – | – | – | – | – | – | – | 0.25 ± 0.05 | – | – |
| CC1=[N+]([O-])C(c2ccc(F)cc2)Nc2ccc(Br)cc21 (stereo not shown) [Compound 3b] | 69,0066% | 60,8505% | 56,1818% | 42,7495% | 28,8446% | 19.31 ± 0.08 | 41.6 | 41.3 | 40.3 | 38.5 | 41.72 ± 0.04 | 36.35 ± 0.01 | 1.07 ± 0.048 | 39,7538% | 38,34% | 35,1963% | 33,8157% | 30,3061% | 12.8 ± 0.07 | 15.1 ± 0.029 | viability at 50 µM [2]: 35.8%; melting point: 183 to 185 °C; IC50 ([6]; IC50 α-Glucosidase): 7.47 ± 0.05 µM |
| COc1ccc(C2Nc3ccc(I)cc3C(C)=[N+]2[O-])cc1 (stereo not shown) [Compound 3h] | 87,7714% | 86,9389% | 64,8667% | 56,0806% | 38,362% | 18.71 ± 0.16 | 33.3 | 32.6 | 30.8 | 29.7 | 24.26 ± 0.04 | 55.72 ± 0.02 | 0.21 ± 0.057 | 45,0932% | 44,5775% | 43,1304% | 41,2009% | 37,5083% | 22.62 ± 0.12 | 10.05 ± 0.003 | viability at 50 µM [2]: 28.1%; melting point: 176 to 179 °C; IC50 ([6]; IC50 α-Glucosidase): 27.18 ± 0.02 µM |
| CC1=[N+]([O-])C(c2ccc(Cl)cc2)Nc2ccc(I)cc21 (racemic) [Compound 3g] | 72,7416% | 56,2268% | 50,6131% | 43,0757% | 33,0296% | – | – | – | – | – | – | 53.42 ± 0.01 | 26.88 ± 0.043 | 42,0991% | 37,841% | 36,5769% | 35,8117% | 33,9155% | – | 4.25 ± 0.005 | IC50 ([1]; read-out: IC50 A549, MTT, mean ± SD, triplicate, 1-50 µM): 18.63 ± 0.11 µM; Cell viability percentage, HEK293-T ([3]; Conc. 1 (µM per method)): 63,41%; Cell viability percentage, HEK293-T ([3]; Conc. 5 (µM per method)): 46,5251%; Cell viability percentage, HEK293-T ([3]; Conc. 10 (µM per method)): 41,062%; Cell viability percentage, HEK293-T ([3]; Conc. 25 (µM per method)): 31,41%; Cell viability percentage, HEK293-T ([3]; Conc. 50 (µM per method)): 17,0502%; IC50 ([3]; MTT, normal cell line, mean ± SD, triplicate, 1-50 µM): 21.7 ± 0.13 µM; IC50 ([6]; read-out: IC50 α-Glucosidase): 15.08 ± 0.08 µM; IC50 ([7]; read-out: IC50 MCF-7, MTT, mean ± SD, triplicate, 1-50 µM): 10.38 ± 0.08 µM |
| CC1=[N+]([O-])C(c2ccc(F)cc2)Nc2c(I)cc(Br)cc21 (stereo not shown) [Compound 3j] | 79,064% | 67,1729% | 57,7455% | 42,6257% | 29,7109% | 13.7 ± 0.12 | 67.6 | 72.8 | 54.5 | 33.9 | 32.83 ± 0.06 | 17.48 ± 0.03 | 61.01 ± 0.053 | 60,354% | 53,8289% | 40,413% | 30,7493% | 22,7375% | 15.06 ± 0.01 | 5.17 ± 0.007 | viability at 50 µM [2]: 19.4%; melting point: 170 to 173 °C; IC50 ([6]; IC50 α-Glucosidase): 19.69 ± 0.01 µM |
